Tests used:
[1] = tested on: A375-luc cells; assay: Cell viability (MTS) and Chou-Talalay drug combination analysis in A375-luc cells; type: cell-based; conditions: single agent, free or in NP, 2 days drug exposure
Description: Cells were seeded in 96-well plates for 24 h at a density of 2×10^3 cells/well. Cell masses that were viable after 2 days of drug exposure were determined by MTS assay. A CellTiter 96 AQueous One Solution Cell Proliferation Assay (Promega, Madison, Wis.) kit containing the tetrazolium compound MTS was used to assay cell viability according to the manufacturer's protocols.
Drug combination analysis was performed by using the method described by Chou and Talalay.
We evaluated the degree of synergy between RAPA and CDDP in terms of cytotoxicity toward A375-luc cells in culture. […] The cytotoxicity of combined CDDP and RAPA was enhanced by NP delivery over free drug combination.

[2] = Drug loading and encapsulation efficiency of cores and PLGA NPs; type: physicochemical; conditions: DOPA coated cores encapsulated separately, DL up to approximately 5 wt %; n=5
Description: The loading and encapsulation efficiency of Rapamycin was measured using High-performance Liquid Chromatography (HPLC, Waters, λ=277 nm); the loading and encapsulation efficiency of CDDP was measured using Inductively Coupled Plasma-Mass Spectroscopy (ICP-MS, NexION™ 300, Perkin Elmer Inc); the loading efficiency of GMP was measured both by Ultraviolet-visible spectrometer (UV, DU®800, Beckman Coulter) and ^3H labeled CMP incorporation using a Liquid Scintillation Analyzer (TRI-CARB 2900 TR, Packard Bioscience Co). The size distribution of particle was determined using a Malvern ZetaSizer Nano series (Westborough, Mass.). TEM images of NPs were acquired using a JEOL 100CX II TEM (JEOL, Japan). The NPs were negatively stained with 2% uranyl acetate. Approximately 100 NPs were analyzed for calculating the average number of CDDP cores per PLGA NP.
DL and EE of cisplatin were measured using Inductively Coupled Plasma-Mass Spectroscopy (ICP-MS, NexION™ 300, Perkin Elmer Inc); LE and EE of GMP were both measured by Ultraviolet-Visible Spectroscopy (UV, DU®800, Beckman Coulter) and ^3H labeled cytidine 5′ monophosphate (CMP) [5-^3H] disodium salt (Moravek Bio Inc, 1 mCi/mL) incorporation using a Liquid Scintillation Analyzer (TRI-CARB 2900 TR, Packard Bioscience Co). The size distribution of particles was determined using a Malvern ZetaSizer Nano series (Westborough, Mass.). […]

[3] = Serum biochemical value analysis, hematology and organ H&E; type: in vivo, mice; conditions: for blood cell counts (RBC, PLT, WBC, HCT, HGB) vs untreated control: healthy nude mice, three dosages; for ALT / AST / BUN / Creatinine: serum after three injections, n = 5
Description: After three injections, blood was collected and centrifuged at 4000 rpm for 5 min to obtain the serum. Blood urea nitrogen (BUN), creatinine, serum aspartate aminotransferase (AST) and alanine aminotransferase (ALT) levels, were assayed as indicators of renal and hepatic function. Whole blood was collected from healthy nude mice after three repeated treatments. Red blood cells (RBC), white blood cells (WBC), platelets (PLT), hemoglobin (HGB) and hematocrits (HCT) were counted for the detection of myelosuppression. Organs (heart, liver, spleen, lung, and kidney) were fixed and sectioned for H&E staining as to evaluate the organ-specific toxicity.

[4] = tested on: UMUC3 cells; assay: MTT cell viability and combination index on UMUC3 cells; type: cell-based, human; conditions: 48 h treatment
Description: MTT (3-[4,5-dimethylthiazol-2-yl]-2,5-diphenyltetrazolium bromide) assay was conducted to detect in vitro viability of free GMP, cisplatin and their combinations as well as PLGA GMP NP, PLGA cisplatin NP and PLGA Combo NP. In Brief, cells were seeded in 96-well plates with a density of 3,000 cells per well 24 h prior to drug treatment. On the second day, cells were treated with free drugs or the drug combination at a series of dilutions with various molar ratios. Forty-eight h post treatment, 20 μL of MTT (5 mg/mL) reagent was added for another 4 h at 37° C. The medium was then discarded and the formed formazan salt was dissolved in 150 μL of DMSO. The absorbance in each well was read at the wavelength of 570 nm using a multidetection microplate reader (Plate […]). Each concentration was tested in five wells and data presented as mean±SD. […] Combination Index (CI) Analysis of free drug combination based on the Chou and Talalay method (T. C. Chou, P. Talalay, Adv. Enzyme Regul. 1984, 22, 27) was conducted using CompuSyn software. Briefly, for each level of Fa, the CI values of cisplatin and GMP combinations were calculated according to the following equation: […] CI values of the drug combinations were drawn as a function of Fa. […] (Y. Han, Z. He, […]. Bronich, R. Jordan, […], Mol. Pharm. 2012, 9, 2302).

[5] = tested on: stroma-rich UMUC3 bladder cancer xenograft; assay: Anti-tumor efficacy in stroma-rich UMUC3 bladder cancer xenografts (TUNEL, PCNA, Pt-DNA adduct, western blot); type: in vivo, mice; conditions: tumor lysates after three doses

Compound	IC50 [1]	EE into PLGA NP [2]	blood cell counts (RBC, PLT, WBC, HCT, HGB) vs untreated control [3]	ALT [3]	AST [3]	BUN [3]	Creatinine [3]	IC50 [4]	expression of ERCC1 and XPA (western blot) [5]	IC50 ([1]; 48 h)
[NH2][Pt]([NH2])([Cl])[Cl] [CDDP, cisplatin]	10 µM	74.0±10.1%	significantly reduced	59 ± 1 U/L	216 ± 15 U/L	25 ± 1 mg/dL	0.2 mg/dL			
Gemcitabine monophosphate [GMP]		70.6±2.5%	significantly reduced	47 ± 3 U/L	122 ± 20 U/L	24 ± 2 mg/dL	0.2 mg/dL	34.8 µM	down-regulation	
CO[C@H]1C[C@@H]2CC[C@@H](C)[C@@](O)(O2)C(=O)C(=O)N2CCCC[C@H]2C(=O)O[C@H]([C@H](C)C[C@@H]2CC[C@@H](O)[C@H](OC)C2)CC(=O)[C@H](C)/C=C(\C)[C@@H](O)[C@@H](OC)C(=O)[C@H](C)C[C@H](C)/C=C/C=C/C=C/1C [RAPA, rapamycin]										16 µM
